The series has as its target HBV. As to conditions: ASO.

Values joined by “and” are separate entries in the source; they are usually repeats but may differ in a detail not shown here. Identical values can stand only once. HELM strings list units from the 5' end as sugar, base in round brackets, then linkage (d deoxyribose, r ribose, m 2'-O-methyl, p phosphodiester). Methylation of C is not given here. [moe] = 2'-O-(2-methoxyethyl) (MOE); [cEt] = constrained ethyl (cEt); [sp] = phosphorothioate linkage

Consider “RNA1{[moe](C)[sp].[moe](G)[sp].[moe](C)[sp].d(A)[sp].d(G)[sp].d(T)[sp].d(A)[sp].d(T)[sp].d(G)[sp].d(G)[sp].d(A)[sp].d(T)[sp].[moe](C)[sp].[moe](G)[sp].[moe](G)[sp].[moe](C)[sp].[moe](A)}$$$$V2.0”, for which the target mRNA inhibition was 7% (HepG2, 0.0092593 µM); 38% (HepG2, 0.0277778 µM); 85% and 80% (HepG2, 0.07 µM); 78% (HepG2, 0.0833333 µM); 89% (HepG2, 0.25 µM).
For the substance “RNA1{[moe](G)[sp].[moe](A)[sp].[moe](T)[sp].[moe](G)[sp].[moe](A)[sp].d(G)[sp].d(G)[sp].d(C)[sp].d(A)[sp].d(T)[sp].d(A)[sp].d(G)[sp].d(C)[sp].d(A)[sp].[moe](G)[sp].[moe](C)[sp].[moe](A)}$$$$V2.0”, the target mRNA inhibition (HepG2, 0.07 µM) was 46% and 21%.
The same measure, in the same setting: under “RNA1{[moe](A)[sp].[moe](T)[sp].d(G)[sp].d(A)[sp].d(G)[sp].d(G)[sp].d(C)[sp].d(A)[sp].d(T)[sp].d(A)[sp].d(G)[sp].[moe](C)[sp].[moe](A)[sp].[moe](G)[sp].[moe](C)[sp].[moe](A)[sp].[moe](G)}$$$$V2.0” stands 64%; under “RNA1{[moe](G)[sp].[moe](T)[sp].[moe](G)[sp].[moe](C)[sp].d(A)[sp].d(G)[sp].d(A)[sp].d(G)[sp].d(G)[sp].d(T)[sp].d(G)[sp].d(A)[sp].d(A)[sp].[moe](G)[sp].[moe](C)[sp].[moe](G)}$$$$V2.0”, 64% and 63%; under “RNA1{[moe](A)[sp].[cEt](A)[sp].d(C)[sp].d(C)[sp].d(A)[sp].d(C)[sp].d(T)[sp].d(G)[sp].d(A)[sp].d(A)[sp].d(C)[sp].d(A)[sp].[cEt](A)[sp].[moe](A)[sp].[cEt](T)[sp].[moe](G)}$$$$V2.0”, 55% and 38%.
The same measure, in the same setting: as for “RNA1{[moe](A)[sp].[moe](C)[sp].[moe](C)[sp].[moe](A)[sp].[moe](C)[sp].d(T)[sp].d(G)[sp].d(A)[sp].d(A)[sp].d(C)[sp].d(A)[sp].d(A)[sp].d(A)[sp].d(T)[sp].[moe](G)[sp].[moe](G)}$$$$V2.0”, the figure is 60% and 52%.
As for “RNA1{[moe](A)[sp].[moe](C)[sp].[moe](T)[sp].[moe](G)[sp].d(G)[sp].d(A)[sp].d(G)[sp].d(C)[sp].d(C)[sp].d(A)[sp].d(C)[sp].d(C)[sp].d(A)[sp].[moe](G)[sp].[moe](C)[sp].[moe](A)}$$$$V2.0”, the target mRNA inhibition (HepG2, 0.07 µM) was 45% and 20%.
The substance “RNA1{[moe](A)[sp].[moe](A)[sp].[moe](G)[sp].[cEt](C)[sp].d(G)[sp].d(A)[sp].d(A)[sp].d(G)[sp].d(T)[sp].d(G)[sp].d(C)[sp].d(A)[sp].d(C)[sp].[cEt](A)[sp].[moe](C)[sp].[moe](G)[sp].[moe](G)}$$$$V2.0” yielded a target mRNA inhibition (HepG2, 0.009375 µM) of 28%; a target mRNA inhibition (HepG2, 0.01875 µM) of 27%; a target mRNA inhibition (HepG2, 0.0375 µM) of 42%; a target mRNA inhibition (HepG2, 0.075 µM) of 59%; a target mRNA inhibition (HepG2, 0.15 µM) of 81%; a target mRNA inhibition (HepG2, 0.3 µM) of 88%.
For the substance “RNA1{[moe](G)[sp].[cEt](C)[sp].[cEt](A)[sp].d(G)[sp].d(T)[sp].d(A)[sp].d(T)[sp].d(G)[sp].d(G)[sp].d(A)[sp].d(T)[sp].d(C)[sp].d(G)[sp].[cEt](G)[sp].[cEt](C)[sp].[moe](A)}$$$$V2.0”, under “HepG2, 0.07 µM”, the target mRNA inhibition was 77% and 75%.
The same measure, in the same setting: under “RNA1{[moe](A)[sp].[moe](G)[sp].[moe](A)[sp].d(G)[sp].d(G)[sp].d(T)[sp].d(G)[sp].d(A)[sp].d(A)[sp].d(G)[sp].d(C)[sp].d(G)[sp].d(A)[sp].[cEt](A)[sp].[cEt](G)[sp].[cEt](T)}$$$$V2.0” stands 69% and 74%.

These data come from the OligoGym collection.
